This note sets out measurements from ChEMBL document CHEMBL1141686, “Discovery of a novel class of PPARdelta partial agonists” (Bioorg Med Chem Lett, 2008).

In the experiment the target is T1, Peroxisome proliferator-activated receptor alpha (Homo sapiens, UniProt Q07869).
T1 sequence (Q07869 whole entry): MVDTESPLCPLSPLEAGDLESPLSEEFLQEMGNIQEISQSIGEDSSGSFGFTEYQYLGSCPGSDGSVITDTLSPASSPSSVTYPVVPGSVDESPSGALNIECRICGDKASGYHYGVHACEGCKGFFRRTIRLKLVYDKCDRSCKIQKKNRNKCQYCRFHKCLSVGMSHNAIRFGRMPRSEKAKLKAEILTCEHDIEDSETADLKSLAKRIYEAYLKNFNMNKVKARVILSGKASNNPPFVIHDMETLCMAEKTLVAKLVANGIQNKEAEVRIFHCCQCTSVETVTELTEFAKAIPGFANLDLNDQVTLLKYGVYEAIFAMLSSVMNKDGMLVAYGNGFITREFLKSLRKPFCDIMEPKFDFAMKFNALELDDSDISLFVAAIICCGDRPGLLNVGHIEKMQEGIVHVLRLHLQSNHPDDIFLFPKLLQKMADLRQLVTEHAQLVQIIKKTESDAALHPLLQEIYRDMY
Take `Cc1ccc(NC(=O)c2cccc(S(=O)(=O)n3ccc4cccc(C)c43)c2)c(C(=O)O)c1`: the IC50 is 1.58 µM.

`COc1ccc2ccn(S(=O)(=O)c3cccc(C(=O)Nc4ccc(Cl)cc4C(=O)O)c3)c2c1` showed an IC50 of 1.58 µM.

Consider `Cc1cccc(C(=O)O)c1NC(=O)c1cccc(S(=O)(=O)N2CCc3ccccc3C2)c1`, for which the half-maximal inhibitory concentration (IC50) is greater than 10 µM.

`COc1ccc2c(ccn2S(=O)(=O)c2cccc(C(=O)Nc3ccc(Cl)cc3C(=O)O)c2)c1` showed an IC50 of 3.16 µM.

For the molecule `COc1cccc2ccn(S(=O)(=O)c3cccc(C(=O)Nc4ccc(C)cc4C(=O)O)c3)c12`, the IC50 was greater than 10 µM.

`COc1cccc2c1ccn2S(=O)(=O)c1cccc(C(=O)Nc2ccc(Cl)cc2C(=O)O)c1` showed a half-inhibitory concentration (IC50) of 0.794 µM.

As to `COc1ccc2c(ccn2S(=O)(=O)c2cccc(C(=O)Nc3ccc(C)cc3C(=O)O)c2)c1`, the IC50 is 7.94 µM. This IC50 is about 10-fold higher than that of the molecule before.

Molecule `Cc1ccc(NC(=O)c2cccc(S(=O)(=O)n3ccc4cc(C)ccc43)c2)c(C(=O)O)c1` had a half-inhibitory concentration (IC50) of 1 µM.

As to `Cc1ccc(NC(=O)c2cccc(S(=O)(=O)n3ccc4c(C)cccc43)c2)c(C(=O)O)c1`, 1 µM corresponded to half-maximal inhibition (IC50).

With `COc1cccc2c1ccn2S(=O)(=O)c1cccc(C(=O)Nc2ccc(C)cc2C(=O)O)c1`, the concentration for half-maximal inhibition (IC50) is 1.26 µM.

The molecule `O=C(O)COc1cccc2c1CCN(S(=O)(=O)c1cccc(C(=O)Nc3ccc(Cl)cc3C(=O)O)c1)C2` gave an IC50 of 5.01 µM.

Molecule `Cc1ccc(NC(=O)c2cccc(S(=O)(=O)n3ccc4ccc(Cl)cc43)c2)c(C(=O)O)c1` gave an IC50 of 3.16 µM.

With `Cc1cccc(NC(=O)c2cccc(S(=O)(=O)N3CCc4ccccc4C3)c2)c1C(=O)O`, the concentration for half-maximal inhibition (IC50) is greater than 10 µM.

As to `Cc1ccc(NC(=O)c2cccc(S(=O)(=O)n3ccc4cccc(Cl)c43)c2)c(C(=O)O)c1`, the half-maximal inhibitory concentration (IC50) is 3.16 µM.

With `COc1ccc2ccn(S(=O)(=O)c3cccc(C(=O)Nc4ccc(C)cc4C(=O)O)c3)c2c1`, the concentration for half-maximal inhibition (IC50) is 3.98 µM.
